Laboratory results as given in patent US5532257A, “Benzothiazole compound, production thereof and use thereof” (Senju Pharmaceutical Co., Ltd, priority 1993, dated 1996).

Legend:
aldose reductase = biological target: T1, aldose reductase (Sus scrofa, UniProt P80276); test: Aldose reductase inhibitory action (swine lens enzyme, dl-glyceraldehyde substrate, NADPH, absorbance change at 340 nm); assay type: biochemical; settings: 3 mM dl-glyceraldehyde, 0.1 mM NADPH, pH 6.2, 25° C., 2 minutes, read-out: IC50 (concentration inhibiting the aldose reductase activity by 50%)
T1 construct: swine lenses freeze-stored at -80° C. were homogenized with distilled water; from tissue; host or cells: swine lens
Method: That is, swine lenses freeze-stored at -80° C. were homogenized with distilled water and cetrifuged at 10,000 G for 15 minutes. The supernatant was prepared into a 40% ammonium sulfate solution and subjected to cetrifugation at 10,000 G for 10 minutes.
The activity of aldose reductase was determined by the above-mentioned method of S. Hayman et al. That is, the above-mentioned enzyme solution (25 μl) and a drug solution (25 μl) dissolved in 1% DMSO at various concentrations were added to a 40 mM phosphate buffer (200 μl, pH 6.2) containing final concentrations of 0.4 M lithium sulfate, 0.1 mM NADPH (reduced type nicotinamide adenine dinucleotide phosphate) and 3 mM dl-glyceraldehyde as a substrate.
The test drug number indicates the example number to be mentioned later.

[1] = system: Sorbitol accumulation in lens; test: Inhibitory action on sorbitol accumulation in tissues of rats with experimental (streptozotocin) diabetes: lens; assay type: in vivo, Sprague-Dawley rats; settings: % of control (control = 100%), measured 3 hours after final administration
Method: (§1) 2) Inhibitory action on sorbitol accumulation in tissues of rats with experimental diabetes
(§2) Test Drugs: Compound of the invention and EPALRESTAT (described in Japanese Patent Unexamined Publication No. 40478/1982)
(§3) Sprague-Dawley rats (male, 6 weeks old, 5-6 per group) were fasted for 18 hours and injected with streptozotocin (SIGMA, 60 mg/kg) via the tail vein under etherization to prepare rats with diabetes.
(§4) The various compounds were orally administered at 4, 8 and 24 hours after the injection of streptozotocin, at 10 mg/kg or 30 mg/kg as a 0.5% carboxymethylcellulose suspension. During the administrations, the rats were raised under free access to feed and water and the sorbitol content in the tissues (erythrocytes, sciatic nerve, lens) was determined 3 hours after the final administration, according to the enzyme method of H. Y. Bergmeyer et al. [Methods of Enzymatic Analysis, vol. 3, 1323-1330 (1974)]with the use of SDH (sorbitol dehydrogenase) and NAD (β-nicotinamide adenine dinucleotide). The results are expressed in percent (%) relative to the value of a control group administered with 0.5% carboxymethylcellulose solution (solvent) instead of the compound, which was taken as 100%.

[2] = system: Sorbitol accumulation in sciatic nerve; test: Inhibitory action on sorbitol accumulation in tissues of rats with experimental (streptozotocin) diabetes: sciatic nerve; assay type: in vivo, Sprague-Dawley rats; settings: % of control (control = 100%), measured 3 hours after final administration
Method: as §1, §2, §3, §4

[3] = system: Sorbitol accumulation in erythrocytes; test: Inhibitory action on sorbitol accumulation in tissues of rats with experimental (streptozotocin) diabetes: erythrocytes; assay type: in vivo, Sprague-Dawley rats; settings: % of control (control = 100%), measured 3 hours after final administration
Method: as §1, §2, §3, §4

ICR mice = settings: mouse, in vivo
Method: The acute toxicity (safety) of the compound of the present invention was confirmed by the following method.
Normal ICR mice (male, 7 weeks old, 5 per group) were fasted for 18 hours and the compound (300 mg/kg) of Example 37 was orally administered as a 0.5% carboxymethylcellulose suspension. To the control group, a 0.5% carboxymethylcellulos e solution alone was orally administered and observation was continued for 14 days thereafter, during which period the mice were allowed to take feed and water freely.

[4] = 10 mg/kg oral at 4, 8 and 24 hours after streptozotocin, * p<0.05, ** p<0.01 (Tukey)
[5] = 10 mg/kg oral at 4, 8 and 24 hours after streptozotocin, ** p<0.01 (Tukey)
[6] = 30 mg/kg oral at 4, 8 and 24 hours after streptozotocin

Compound | IC50 (aldose reductase) | Sorbitol accumulation, lens [1, 4] | Sorbitol accumulation, sciatic nerve [2, 5] | Sorbitol accumulation, erythrocytes [3, 5] | death among the mice (ICR mice) | Sorbitol accumulation, lens [1, 6] | Sorbitol accumulation, sciatic nerve [2, 6] | Sorbitol accumulation, erythrocytes [3, 6]
O=C(O)CCC(=O)N(Cc1nc2c(F)c(F)cc(F)c2s1)c1ccccc1 [Example 65, N-[(4,5,7-trifluorobenzothiazol-2-yl)methyl]-N-phenylsuccinamic acid] | 15 nM | 71.8% | 4.0% | 6.4% | – | – | – | –
Cc1ccc(N(Cc2nc3c(F)c(F)cc(F)c3s2)C(=O)CCC(=O)O)cc1 [Example 41, N-[(4,5,7-trifluorobenzothiazol-2-yl)methyl]-N-(4-methylphenyl)succinamic acid] | 13 nM | – | – | – | – | – | – | –
CSc1ccccc1N(Cc1nc2c(F)c(F)cc(F)c2s1)C(=O)CCC(=O)O [Example 72, N-[(4,5,7-trifluorobenzothiazol-2-yl)methyl]-N-(2-methylthiophenyl)succinamic acid] | 13 nM | 50.0% | 10.8% | 19.2% | – | – | – | –
COc1ccc(N(Cc2nc3c(F)c(F)cc(F)c3s2)C(=O)CCC(=O)O)cc1 [Example 55, N-[(4,5,7-trifluorobenzothiazol-2-yl)methyl]-N-(4-methoxyphenyl)succinamic acid] | – | 74.4% | 27.2% | 2.5% | – | – | – | –
O=C(O)CCC(=O)N(Cc1nc2c(F)c(F)cc(F)c2s1)c1ccccc1Cl [Example 48, N-(2-chlorophenyl)-N-[(4,5,7-trifluorobenzothiazol-2-yl)methyl]succinamic acid] | – | 56.6% | 45.7% | 32.8% | – | – | – | –
O=C(O)CCC(=O)N(Cc1nc2c(F)c(F)cc(F)c2s1)c1ccc(Cl)cc1 [Example 37, N-(4-chlorophenyl)-N-[(4,5,7-trifluorobenzothiazol-2-yl)methyl]succinamic acid] | – | 55.4% | 17.8% | 16.4% | no case of death | – | – | –
O=C(O)CCC(=O)N(Cc1nc2c(Cl)c(Cl)ccc2s1)c1ccc(Cl)cc1 [Example 39, N-(4-chlorophenyl)-N-[(4,5-dichlorobenzothiazol-2-yl)methyl]succinamic acid] | 13 nM | – | – | – | – | – | – | –
CC(/C=C1\SC(=S)N(CC(=O)O)C1=O)=C\c1ccccc1 [EPALRESTAT, reference compound] | – | – | – | – | – | 89.1% | 99.9% | 66.5%
